# “Also recorded” adds a separate entry of the source.
# Tests used:
# TNFα = test: Western blot analysis of skin samples, TNFα; format: in vivo, C57BL/6 mice; details: compared to the TOPGRAF group, p<0.05
# Description: The animals were then treated by applying cetylpyridinum chloride (CPC)-urea gel containing blank formulation as negative control, pemetrexed formulation, siTNFα formulation, pemetrexed-siTNFα combination formulation, or a known tacrolimus cream (TOPGRAF) as a positive control.
# For western blot analysis, skin samples were minced in lysis cocktail composed of RIPA lysis buffer, protease inhibitor (PI) and phenylmethylsulfonyl fluoride (PMSF). BCA Protein Assay Reagent Kit was used to estimate the protein concentration per the manufacturer's protocol. 50 μg of the extracted protein for each sample was loaded into a gel and subjected to SDS-polyacrylamide electrophoresis (SDS-PAGE). The blots were incubated with primary antibodies for TNFα, NFkB, IL23, IL17, and β-actin and subsequently detected with Horseradish peroxidase-conjugated secondary antibodies using a S[…] PICO Chemiluminescent Substrate (Pierce, Rockford, Ill., USA) and BIORAD CHEMIDOC XRS+ imaging system (Hercules, Calif., USA).
# NFkB = test: Western blot analysis of skin samples, NFkB; format: in vivo, C57BL/6 mice; details: compared to the TOPGRAF group, p<0.05
# Description: (§1) At the end of the study, skin samples were harvested and analyzed for inflammatory proteins by immunohistochemistry and western blot analyses.
# (§2) For western blot analysis, skin samples were minced in lysis cocktail composed of RIPA lysis buffer, protease inhibitor (PI) and phenylmethylsulfonyl fluoride (PMSF). BCA Protein Assay Reagent Kit was used to estimate the protein concentration per the manufacturer's protocol. 50 μg of the extracted protein for each sample was loaded into a gel and subjected to SDS-polyacrylamide electrophoresis (SDS-PAGE). The blots were incubated with primary antibodies for TNFα, NFkB, IL23, IL17, and β-actin and subsequently detected with Horseradish peroxidase-conjugated secondary antibodies using a SUPERSIGNAL WEST PICO Chemiluminescent Substrate (Pierce, Rockford, Ill., USA) and BIORAD CHEMIDOC XRS+ imaging system (Hercules, Calif., USA).
# IL23 = test: Western blot analysis of skin samples, IL23; format: in vivo, C57BL/6 mice; details: compared to the TOPGRAF group, p<0.05
# Description: as §1, §2
# IL17 = test: Western blot analysis of skin samples, IL17; format: in vivo, C57BL/6 mice; details: compared to the TOPGRAF group, p<0.05
# Description: as §1, §2
# [1] = test system: IMQ-induced psoriatic-like plaques; details: after five treatments
# Description: (§3) Briefly, IMQ cream was applied topically to the shaven dorsal regions of C57BL/6 mice (4 mg/day/animal) to form psoriatic-like plaques. […] The CPC-urea gels containing the foregoing formulations were applied to the inflamed dorsal regions of the animals for five (5) consecutive days.
# A clinical scoring method for the PASI was used daily to score the severity of the inflammation induced on the dorsal regions of the mice, based on the extent of erythema, scaling, and epidermal thickening. The PASI score was assigned daily after initiating treatment on a scale of 0 to 4, where 0 indicated no inflammation, 1 indicated slight inflammation, 2 indicated moderate inflammation, 3 indicated marked inflammation, and 4 indicated very severe inflammation.
# [2] = test system: IMQ-induced psoriatic-like plaques; details: after five treatments, topical
# Description: as §3
# The TEWL was estimated using DELFIN VAPOMETER (DELFIN Technologies Ltd, Finland) as a measure of the extent of skin damage and healing with each day of treatment. The device was placed gently on the dorsal region of the mice each day of treatment and the value corresponding to water loss was recorded.
smiles,measurement,setting,value
Nc1nc2[nH]cc(CCc3ccc(C(=O)N[C@@H](CCC(=O)O)C(=O)O)cc3)c2c(=O)[nH]1 [pemetrexed],expression of TNFα (western blot),TNFα,significant reduction
same,expression of NFKB (western blot),NFkB,significant reduction
same,expression of IL23 (western blot),IL23,significant reduction; also recorded: decreased expressions
same,expression of IL17 (western blot),IL17,significant reduction; also recorded: decreased expressions
same,PASI score compared to tacrolimus cream (TOPGRAF),[1]; topical,better PASI score; also recorded: superior
same,erythema and scaling compared to other groups,[1]; topical,significant reduction in erythema and scaling
same,PASI score,"[1]; topical CPC-urea gel, scale of 0 to 4",~0
same,psoriatic plaque,"[1]; topical, b57 compared to TOPGRAF",reduction in psoriatic plaque
same,TEWL compared to tacrolimus cream (TOPGRAF),[2],better TEWL

# Reference: patent US9867827B1, “Methods and formulations for topical treatment of psoriasis” (Florida A&M University, priority 2015, dated 2018)
